According to patent US7192925B2, “Scorpion peptide as hypotensive agent” (Universidade Federal de Minas Gerais, priority 2002, dated 2007):
Entries after “also recorded” stand apart in the source; their conditions may differ.

Tests used:
[1] = system: hypotensive effect of bradykinin (average arterial pressure) in Wistar rats; assay: Bradykinin potentiation in vivo: hypotensive effect of bradykinin re-evaluated after TsHpt-I injection; design: species or system rat
Protocol: (§1) Wistar rats, weighting 300±20 g were used, waked or anesthetized, to assess the hypotensive properties of peptides. Bradykinin (Bachem, Co) and TsHpt-I were dissolved in sterile isotonic saline (0.9% NaCl) immediately before use.
(§2) “In vivo” experiments using waked animals: a day before the experiment, rats were anesthetized with ether and a polyethylene catheter (PE-10 connected to PE-50) was inserted into the abdominal aorta through the femoral artery for blood pressure measurements. For intravenous injections, a polyethylene cannula was implanted into the femoral vein. Arterial blood pressure and heart rate were monitored by a solid-state strain-gauge transducer. All variables were recorded continuously on a computer through a data acquisition system, Biopac®, and processed by the Acknowledge® software.
(§3) Bradykinin, 1 μg or 2 μg, was injected and the response measured as variation on average arterial pressure. Hypotensive effect of TsHpt-I (10 μg) alone was measured after Bradykinin. The hypotensive effect of bradykinin (1 μg) was then re-evaluated after 5 and 10 minutes following the injection of TsHpt-I.
“In vivo” experiments using anesthetized rats: the arterial blood pressure and heart rate were monitored continuously after insertion of catheters as described above. Rats were previously anesthetized with urethane, 1.2 mg/kg, (via i.p.).
The hypotensive effect of intravenous injections of bradykinin, 1 μg or 2 μg was measured, followed by the measurement of hypotensive effect of TsHpt-I (10 μg). The hypotensive effect of the bradykinin (1 μg) was then re-evaluated after 1, 5, 10, 15, 20 and 30 minutes.
The potentiating unit—i.e., the amount of peptide that is able to double the activity of a single dose of bradykinin—of TsHpt-I was 10 μg. At this dose TsHpt-I was able to double the activity of a single dose of bradykinin for almost 20 minutes in anesthetized animals.

[2] = system: arterial blood pressure of Wistar rats; assay: Hypotensive activity of the peptide in biological assays on rats; format: in vivo, rat; conditions: native and synthetic peptide
Protocol: as §1, §2, §3
“In vivo” experiments using anesthetized rats: the arterial blood pressure and heart rate were monitored continuously after insertion of catheters as described above. Rats were previously anesthetized with urethane, […], (via i.p.). […]

## TsHpt-I (AEIDFSGIPEDIIKQIKETNAKPPA; listed as Tityus serrulatus)
[1]; TsHpt-I 10 μg, anesthetized animals (urethane)
  time for which TsHpt-I was able to double the activity of a single dose of bradykinin: ~20 min
[1]; rat, in vivo
  potentiation of bradykinin effects (in words): able to potentiate bradykinin effects in a strong and long-lasting manner
[1]; waked and anesthetized rats, intravenous injection, bradykinin 1 μg
  potentiating unit (amount of peptide that is able to double the activity of a single dose of bradykinin): 10 µg
[2]
  hypotensive activity / ability to decrease blood pressure (in words): strong ability to decrease blood pressure; also recorded: same hypotensive activity as the native molecule
